The record followed here is patent US20020091107A1 (published 2002).

One may read the melting point as the temperature, or range, at which the solid turns liquid. As to `CC(=O)NC[C@H]1CN(c2ccc(/C=C3/C(=O)N(C)c4ccccc43)cc2)C(=O)O1`, the melting point was in the range of 193 to 195 °C.
With `CC(=O)NC[C@H]1CN(c2ccc(/C=C3\C(=O)N(c4ccccc4)N=C3C(C)(C)C)cc2)C(=O)O1` the figure was 70 °C.
